From ChEMBL document CHEMBL3044564, “Synthesis and antihypertensive activity evaluation in spontaneously hypertensive rats of lacidipine analogues” (2012)

Experiments:
[1] = system: Rattus norvegicus; test: Antihypertensive activity in spontaneously hypertensive Rattus norvegicus (rat) assessed as reduced systolic blood pressure at 1 mg/kg intragastrically administered; format: functional, Artery; details: route intragastric
[2] = system: Rattus norvegicus; test: Antihypertensive activity in spontaneously hypertensive Rattus norvegicus (rat) assessed as reduced systolic blood pressure at 2 mg/kg intragastrically administered measured at 6 hr post compound treatment (reference value: -2 +/- 3 mmHg); format: functional, Artery; details: route intragastric
[3] = system: Rattus norvegicus; test: Antihypertensive activity in spontaneously hypertensive Rattus norvegicus (rat) assessed as reduced systolic blood pressure at 2 mg/kg intragastrically administered measured at 4 hr post compound treatment (reference value: -1 +/- 3 mmHg); format: functional, Artery; details: route intragastric
[4] = system: Rattus norvegicus; test: Antihypertensive activity in spontaneously hypertensive Rattus norvegicus (rat) assessed as reduced systolic blood pressure at 2 mg/kg intragastrically administered measured at 20 hr post compound treatment (reference value: -2 +/- 4 mmHg); format: functional, Artery; details: route intragastric
[5] = system: Rattus norvegicus; test: Antihypertensive activity in spontaneously hypertensive Rattus norvegicus (rat) assessed as reduced systolic blood pressure at 0.5 mg/kg intragastrically administered measured at 1 hr post compound treatment (reference value: 1 +/- 3 mmHg); format: functional, Artery; details: route intragastric
[6] = system: Rattus norvegicus; test: Antihypertensive activity in spontaneously hypertensive Rattus norvegicus (rat) assessed as reduced systolic blood pressure at 2 mg/kg intragastrically administered measured at 1 hr post compound treatment (reference value: 1 +/- 3 mmHg); format: functional, Artery; details: route intragastric
[7] = system: Rattus norvegicus; test: Antihypertensive activity in spontaneously hypertensive Rattus norvegicus (rat) assessed as reduced systolic blood pressure at 1 mg/kg intragastrically administered measured at 2 hr post compound treatment (reference value: -1 +/- 2 mmHg); format: functional, Artery; details: route intragastric
[8] = system: Rattus norvegicus; test: Antihypertensive activity in spontaneously hypertensive Rattus norvegicus (rat) assessed as reduction in systolic blood pressure compound intragastrically administered measured at 1 to 20 hr post compound treatment; format: functional, organism-based; details: Artery
[9] = system: Rattus norvegicus; test: Antihypertensive activity in spontaneously hypertensive Rattus norvegicus (rat) assessed as reduced systolic blood pressure at 1 mg/kg intragastrically administered measured at 1 hr post compound treatment (reference value: 1 +/- 3 mmHg); format: functional, Artery; details: route intragastric
[10] = system: Rattus norvegicus; test: Antihypertensive activity in spontaneously hypertensive Rattus norvegicus (rat) assessed as reduced systolic blood pressure at 2 mg/kg intragastrically administered measured at 2 hr post compound treatment (reference value: -1 +/- 2 mmHg); format: functional, Artery; details: route intragastric
[11] = system: Rattus norvegicus; test: Antihypertensive activity in spontaneously hypertensive Rattus norvegicus (rat) assessed as reduced systolic blood pressure at 2 mg/kg intragastrically administered measured at 8 hr post compound treatment (reference value: -3 +/- 3 mmHg); format: functional, Artery; details: route intragastric
[12] = system: Rattus norvegicus; test: Antihypertensive activity in spontaneously hypertensive Rattus norvegicus (rat) assessed as reduced systolic blood pressure at 1 mg/kg intragastrically administered measured at 4 hr post compound treatment (reference value: -1 +/- 3 mmHg); format: functional, Artery; details: route intragastric
[13] = system: Rattus norvegicus; test: Antihypertensive activity in spontaneously hypertensive Rattus norvegicus (rat) assessed as reduced systolic blood pressure at 1 mg/kg intragastrically administered measured at 6 hr post compound treatment (reference value: -2 +/- 3 mmHg); format: functional, Artery; details: route intragastric

CCOC(=O)C1=C(C)NC(C)=C(C(=O)OCC)C1c1ccccc1/C=C/C(=O)N1CCCCC1
Activity [1]: 22 mmHg

CCOC(=O)C1=C(C)NC(C)=C(C(=O)OCC)C1c1ccccc1/C=C/C(=O)NC(C)(C)C
Activity [1]: 44 mmHg

CCCCN(C)C(=O)/C=C/c1ccccc1C1C(C(=O)OCC)=C(C)NC(C)=C1C(=O)OCC
Activity [1]: 27 mmHg

CCOC(=O)C1=C(C)NC(C)=C(C(=O)OCC)C1c1ccccc1/C=C/C(=O)OC(C)(C)C [LACIDIPINE]
Activity [1]: 50 mmHg

CCOC(=O)C1=C(C)NC(C)=C(C(=O)OCC)C1c1ccccc1/C=C/C(=O)N(C)C(C)(C)C
Activity [1]: 46 mmHg
Activity [2]: 45 mmHg
Activity [3]: 47 mmHg
Activity [4]: 25 mmHg
Activity [5]: 11 mmHg
Activity [6]: 44 mmHg
Activity [7]: 34 mmHg
Activity [8]: Dose-dependent effect
Activity [9]: 46 mmHg
Activity [10]: 53 mmHg
Activity [11]: 43 mmHg
Activity [12]: 20 mmHg
Activity [13]: 3 mmHg

CCOC(=O)C1=C(C)NC(C)=C(C(=O)OCC)C1c1ccccc1/C=C/C(=O)NCC(C)C
Activity [1]: 15 mmHg

CCOC(=O)C1=C(C)NC(C)=C(C(=O)OCC)C1c1ccccc1/C=C/C(=O)N(CC)CC
Activity [1]: 33 mmHg
